Assay results published in PubChem BioAssay (NCI).
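1) Cells in 96-well plates. 2) Compound, 48 h, 5 concentrations. 3) Linear interpolation between surrounding doses. 4) Unreached endpoint = highest concentration. At the GI50, growth is halved. TGI: concentration producing complete growth inhibition.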

What was measured:
Assay in all cases: NCI tumour cell line growth inhibition, 48 h
[1] = tested on: MDA-N
[2] = tested on: SNB-78 CNS
[3] = tested on: M19-MEL melanoma
[4] = tested on: DLD-1 colon
[5] = tested on: HOP-18 NSCLC
[6] = tested on: RXF-631 renal
[7] = tested on: DMS 114 small cell lung
[8] = tested on: DMS 273 small cell lung
[9] = tested on: XF 498 CNS
[10] = tested on: P388 leukemia
[11] = tested on: SN12K1 renal
[12] = tested on: P388/ADR leukemia

Structure (SMILES)	TGI [1]	TGI [2]	TGI [3]	TGI [4]	TGI [5]	TGI [6]	TGI [7]	TGI [8]	TGI [9]	further results
CC(C)(C)c1ccc(-c2nnc(SCc3ccc(Cl)cc3)n2-c2cccc(C(F)(F)F)c2)cc1	> 100 µM	–	–	–	–	–	–	–	–	–
COc1ccc(Cc2ccccc2C(=O)O)c2ccccc12	74.4 µM	–	–	–	–	–	–	–	–	–
COC(=O)/C(C#N)=C1\N=NNN1CCCc1ccccc1	–	> 100 µM	> 100 µM	> 100 µM	> 100 µM	> 100 µM	> 100 µM	> 100 µM	–	–
COc1ccccc1NC(=O)C1=C(C)NC(C)=C(C(=O)Nc2ccccc2OC)C1c1ccc(C(C)C)cc1	–	–	> 100 µM	> 100 µM	> 100 µM	> 100 µM	–	> 100 µM	> 100 µM	–
O=c1c2ccccc2nc(-c2ccc(Cl)cc2)n1O	> 100 µM	–	–	–	–	–	–	–	–	–
CCN(CCCl)CCNc1c2ccccc2nc2ccc(OC)cc12	–	4.68 µM	2.24 µM	3.46 µM	8.02 µM	4.4 µM	2.35 µM	2.02 µM	2.43 µM	TGI [10]: 0.58 µM; TGI [11]: 3.08 µM; TGI [12]: 2.29 µM
CC(CN(CP(=O)([O-])[O-])CP(=O)([O-])[O-])N(CP(=O)([O-])[O-])CP(=O)([O-])[O-].N[C@@H]1CCCC[C@@H]1N.[Pt+2] (stereo unspecified)	–	> 100 µM	–	> 100 µM	> 100 µM	–	–	> 100 µM	–	GI50 [2]: > 100 µM; GI50 [4]: > 100 µM; GI50 [5]: > 100 µM; GI50 [8]: > 100 µM
C/C=C/C1(NS(=O)(=O)c2ccc(C)cc2)CCC(C(C)(C)C)CC1 (stereo unspecified)	–	64.1 µM	41 µM	> 100 µM	> 100 µM	71.8 µM	62.3 µM	31.5 µM	39.3 µM	–
O=C1c2cccnc2-c2nc(-c3ccc([N+](=O)[O-])cc3)cc3c2c1nc1ccccc13	3.22 µM	–	–	–	–	–	–	–	–	GI50 [1]: 1.75 µM
CCCCOC(=O)N[C@H]1CCc2cc(OC)c(OC)c(OC)c2-c2ccc(SC)c(=O)cc21	< 0.01 µM	> 4.64 µM	65.7 µM	> 100 µM	> 100 µM	–	< 0.01 µM	–	2.55 µM	–
CC(O)CN(CCN(CC(C)O)CC(C)O)CC(C)O.O=[N+]([O-])O.[Cu+2] (stereo unspecified)	> 100 µM	–	–	–	–	–	–	–	–	GI50 [1]: > 100 µM
N#CC(C#N)=C1NC(=O)C(c2ccccc2)C(=O)N1 (stereo unspecified)	–	> 100 µM	> 100 µM	> 100 µM	–	> 100 µM	> 100 µM	> 100 µM	> 100 µM	–
Cc1ccccc1NC(=O)c1[nH]c(=S)nc(N)c1-c1ccccc1C	–	> 100 µM	> 100 µM	> 100 µM	> 100 µM	–	> 100 µM	> 100 µM	–	–
COC(=O)C1Cc2c([nH]c3ccccc23)C=N1 (stereo unspecified)	–	> 100 µM	> 100 µM	> 100 µM	> 100 µM	–	> 100 µM	> 100 µM	–	–
O=Cc1ccc(C(F)(F)F)cc1.[C-]#[O+].[C-]#[O+].[C-]#[O+].[Cr]	55.1 µM	–	–	–	–	–	–	–	–	GI50 [1]: 18 µM
Cc1cccc(C)c1NC(=O)C(=O)C1C(=O)N(c2ccccc2)N=C1N (stereo unspecified)	–	> 100 µM	> 100 µM	> 100 µM	> 100 µM	–	> 100 µM	> 100 µM	–	–

Structure (SMILES)	TGI [1]	TGI [2]	TGI [3]	TGI [4]	TGI [5]	TGI [6]	TGI [7]	TGI [8]	TGI [9]	further results
COc1nc2c(nc(N)n2C2OC(CO)C(O)C(O)C2O)c(=O)n1C (stereo unspecified)	–	> 100 µM	> 100 µM	> 100 µM	> 100 µM	> 100 µM	> 100 µM	–	> 100 µM	–
CC(C)(C)c1ccccc1NS(=O)(=O)c1ccccc1	–	> 100 µM	> 100 µM	–	–	> 100 µM	> 100 µM	> 100 µM	> 100 µM	–
CCOC1NC(=O)Oc2ccccc21 (stereo unspecified)	> 100 µM	–	–	–	–	–	–	–	–	–
O=C1/C(=C/c2ccc(O)cc2)CCC1CNc1ccc(Cl)cc1 (stereo unspecified)	20.9 µM	33.8 µM	12.5 µM	2.97 µM	13.5 µM	32.1 µM	9.02 µM	12.1 µM	–	–
Cc1cc(Cl)ccc1N1C(=O)C(=O)C(c2nc3ccccc3s2)C(=O)C1=O	–	> 100 µM	–	> 100 µM	> 100 µM	> 100 µM	> 100 µM	> 100 µM	> 100 µM	–
CCOc1ccc(NC(=O)C2=C(C)NC(C)=C(C(=O)Nc3ccc(OCC)cc3)C2c2ccc([N+](=O)[O-])cc2)cc1	–	> 100 µM	> 100 µM	> 100 µM	–	–	> 100 µM	–	70.7 µM	–
O=C(CC1C(=O)Nc2ccccc2S1=O)Nc1cccc(Cl)c1 (stereo unspecified)	56.1 µM	> 100 µM	> 100 µM	> 100 µM	> 100 µM	–	> 100 µM	–	> 100 µM	–
O=C1C(c2ccccc2)=C(c2ccccc2)C(c2ccccc2)/C1=C1\C(=O)C(c2ccccc2)=C(c2ccccc2)C1c1ccccc1 (stereo unspecified)	–	> 100 µM	> 100 µM	> 100 µM	> 100 µM	–	> 100 µM	> 100 µM	–	–
CC(C)(C)c1cc(C(O)(C(F)(F)F)C(F)(F)F)c2c(c1)C(C(F)(F)F)(C(F)(F)F)OC(c1ccccc1)(C(C)(C)C)N2 (stereo unspecified)	–	24.1 µM	13.8 µM	14.6 µM	6.81 µM	–	9.8 µM	13.6 µM	6.24 µM	–
O=C(/C=C/c1ccccc1F)C(c1ccccc1)c1ccccc1	–	34.8 µM	–	12.7 µM	–	–	–	38.1 µM	3.56 µM	–
CC(=O)O[C@H]1CC[C@@]2(C)C(=CC[C@@H]3C2CC[C@]2(C)Nc4oncc4CC32)C1 (stereo partly specified)	–	–	> 100 µM	> 100 µM	–	> 100 µM	–	73.5 µM	84.4 µM	–
O=C(OCCOCCOC(=O)c1c[nH]cc1-c1ccccc1)c1c[nH]cc1-c1ccccc1	–	68.7 µM	34 µM	71.4 µM	–	–	32.5 µM	30.6 µM	34.4 µM	–
Cc1ccc(S(=O)(=O)N2CCCCC2CCO)cc1 (stereo unspecified)	–	> 100 µM	> 100 µM	> 100 µM	> 100 µM	–	> 100 µM	> 100 µM	–	–
C[Si](C)(C)/C(Br)=C\CCN1C(=O)CCC1O (stereo unspecified)	–	> 100 µM	> 100 µM	–	> 100 µM	–	> 100 µM	> 100 µM	> 100 µM	–
Cc1cc2c(=O)cc(-c3ccc(Cl)cc3)oc2c(C(=O)O)c1C	–	> 100 µM	> 100 µM	> 100 µM	> 100 µM	> 100 µM	> 100 µM	> 100 µM	> 100 µM	–
CC(=O)Nc1ccc(C(=O)N[C@@H]2C(=O)N3[C@@H]2SC(C)(C)[C@@H]3C(=O)O)cn1	> 100 µM	–	–	–	–	–	–	–	–	–
